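Dose response: 5 concentrations. Exposure: 48 h. Format: 96-well plates. Endpoint: linear interpolation; highest concentration if not reached. GI50 is the concentration that inhibits growth by half.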 The source made the active and inactive calls. No stated cut-off is given here; in the data, active = GI50 up to about 1.1 µM and inactive = higher.
Legend:
Assay in all cases: growth of human tumour cells (NCI), 48 h
[1] = tested on: SF-295
[2] = tested on: DMS-114
[3] = tested on: RXF 393
[4] = tested on: SK-MEL-28
[5] = tested on: U-251
[6] = tested on: TK-10
[7] = tested on: SNB-78
[8] = tested on: HCT-15
[9] = tested on: SK-MEL-5
[10] = tested on: ACHN
[11] = tested on: HCT-116
[12] = tested on: SNB-75
[13] = tested on: UACC-62
[14] = tested on: IGROV-1
[15] = tested on: MOLT-4
[16] = tested on: M14
[17] = tested on: RPMI-8226
[18] = tested on: OVCAR-5
[19] = tested on: SR
[20] = tested on: SK-OV-3
[21] = tested on: KM12
[22] = tested on: A549
[23] = tested on: SNB-19
[24] = tested on: HOP-62
[25] = tested on: Malme-3M
[26] = tested on: UO-31
[27] = tested on: 786-0
[28] = tested on: NCI-H23
[29] = tested on: LXFL 529
[30] = tested on: K562
[31] = tested on: OVCAR-3
[32] = tested on: NCI-H522
[33] = tested on: OVCAR-8
[34] = tested on: HOP-92
[35] = tested on: SN12C
[36] = tested on: M19-MEL
[37] = tested on: CAKI-1
[38] = tested on: HT-29
[39] = tested on: SF-539
[40] = tested on: SW-620
[41] = tested on: DMS-273
[42] = tested on: CCRF-CEM
[43] = tested on: SK-MEL-2
[44] = tested on: NCI-H460
[45] = tested on: HCC 2998
[46] = tested on: KM-20L2
[47] = tested on: NCI-H226
[48] = tested on: COLO 205
[49] = tested on: HL-60
[50] = tested on: DLD-1
[51] = tested on: LOX IMVI
[52] = tested on: EKVX
[53] = tested on: XF498
[54] = tested on: OVCAR-4
[55] = tested on: SF-268

[N-]=[N+]=NC(c1cn(C2CC(O)C(CO)O2)c(=O)[nH]c1=O)C(Br)I (configuration not stated)
GI50 [1]: > 100 µM (inactive)
GI50 [2]: > 100 µM (inactive)
GI50 [3]: > 100 µM (inactive)
GI50 [4]: > 100 µM (inactive)
GI50 [5]: > 100 µM (inactive)
GI50 [6]: > 100 µM (inactive)
GI50 [7]: > 100 µM (inactive)
GI50 [8]: > 100 µM
GI50 [9]: > 100 µM (inactive)
GI50 [10]: > 100 µM (inactive)
GI50 [11]: > 100 µM (inactive)
GI50 [12]: > 100 µM (inactive)
GI50 [13]: > 100 µM (inactive)
GI50 [14]: > 100 µM (inactive)
GI50 [15]: > 100 µM (inactive)
GI50 [16]: > 100 µM (inactive)
GI50 [17]: > 100 µM (inactive)
GI50 [18]: > 100 µM (inactive)
GI50 [19]: > 100 µM (inactive)
GI50 [20]: > 100 µM (inactive)
GI50 [21]: > 100 µM (inactive)
GI50 [22]: > 100 µM (inactive)
GI50 [23]: > 100 µM (inactive)
GI50 [24]: > 100 µM (inactive)
GI50 [25]: > 100 µM (inactive)
GI50 [26]: > 100 µM (inactive)
GI50 [27]: > 100 µM (inactive)
GI50 [28]: > 100 µM (inactive)
GI50 [29]: > 100 µM (inactive)
GI50 [30]: > 100 µM (inactive)
GI50 [31]: > 100 µM (inactive)
GI50 [32]: > 100 µM (inactive)
GI50 [33]: > 100 µM (inactive)
GI50 [34]: > 100 µM (inactive)
GI50 [35]: > 100 µM (inactive)
GI50 [36]: > 100 µM (inactive)
GI50 [37]: > 100 µM (inactive)
GI50 [38]: > 100 µM (inactive)
GI50 [39]: > 100 µM (inactive)
GI50 [40]: > 100 µM (inactive)
GI50 [41]: > 100 µM (inactive)
GI50 [42]: > 100 µM (inactive)
GI50 [43]: > 100 µM (inactive)
GI50 [44]: > 100 µM (inactive)
GI50 [45]: > 100 µM (inactive)
GI50 [46]: > 100 µM (inactive)
GI50 [47]: > 100 µM (inactive)
GI50 [48]: > 100 µM (inactive)
GI50 [49]: > 100 µM (inactive)
GI50 [50]: > 100 µM (inactive)
GI50 [51]: > 100 µM (inactive)
GI50 [52]: > 100 µM (inactive)

BrC1=CCC23CC=C(Br)[C@H]4CC2(COC3)C[C@@H]1O4 (some centres not stated)
GI50 [1]: > 100 µM (inactive)
GI50 [2]: 28.4 µM (inactive)
GI50 [3]: 32 µM (inactive)
GI50 [4]: 22.6 µM (inactive)
GI50 [5]: 79.3 µM (inactive)
GI50 [6]: 80.2 µM (inactive)
GI50 [7]: 35.2 µM (inactive)
GI50 [8]: 47.9 µM
GI50 [9]: > 100 µM (inactive)
GI50 [10]: > 100 µM (inactive)
GI50 [11]: 29.2 µM (inactive)
GI50 [12]: 20.1 µM (inactive)
GI50 [13]: 46.1 µM (inactive)
GI50 [14]: > 100 µM (inactive)
GI50 [15]: 25.8 µM (inactive)
GI50 [16]: > 100 µM (inactive)
GI50 [17]: 39.6 µM (inactive)
GI50 [18]: 21.2 µM (inactive)
GI50 [19]: 23.4 µM (inactive)
GI50 [53]: 76.6 µM (inactive)
GI50 [21]: 54.2 µM (inactive)
GI50 [22]: > 100 µM (inactive)
GI50 [23]: 37.9 µM (inactive)
GI50 [24]: > 100 µM (inactive)
GI50 [25]: > 100 µM (inactive)
GI50 [26]: 28.2 µM (inactive)
GI50 [27]: 33.2 µM (inactive)
GI50 [28]: 37.2 µM (inactive)
GI50 [29]: 40.3 µM (inactive)
GI50 [54]: 27 µM (inactive)
GI50 [30]: 27.5 µM (inactive)
GI50 [31]: 63.5 µM (inactive)
GI50 [32]: 24.3 µM (inactive)
GI50 [33]: 63.8 µM (inactive)
GI50 [35]: 52 µM (inactive)
GI50 [36]: > 100 µM (inactive)
GI50 [38]: > 10 µM (inactive)
GI50 [39]: 84.9 µM (inactive)
GI50 [40]: 55 µM (inactive)
GI50 [41]: 36.7 µM (inactive)
GI50 [42]: 24.4 µM (inactive)
GI50 [43]: 54.7 µM (inactive)
GI50 [44]: 48 µM (inactive)
GI50 [46]: 59.3 µM (inactive)
GI50 [47]: 44.1 µM (inactive)
GI50 [48]: > 100 µM (inactive)
GI50 [49]: 6.41 µM (inactive)
GI50 [55]: 16.9 µM (inactive)
GI50 [51]: 71.6 µM (inactive)
GI50 [52]: > 100 µM (inactive)
